{"source": "patent US8247407B2", "about": ", priority 2007, dated 2012)", "key": {"patients": {"system": "patients", "settings": "cited from earlier work"}, "[1]": {"system": "rats with alloxan diabetes", "experiment": "Hypoglycemic activity, alloxan diabetes model in rats (Example 1)", "type": "in vivo, rat", "description": "The pharmaceutical compositions for determination of anti-diabetic action had the following composition: active compound—1 g, potato starch—1 g, water—100 ml.\n(§1) The comparison of anti-diabetic action of compounds was carried out using a standard model of alloxan diabetes and metmorphin as a comparative drug. The alloxan diabetes was induced by a single subcutaneous injection of water solution of alloxan hydrate (ICN Biomedicals, USA) at a dose of 150 mg/kg to rats weighting 180-200 g that have fasted for 24 hours. The following animal groups were studied: intact rats, diabetic non-treated rats, diabetic rats receiving Polfa-Kutno Ltd.″ metmorphin daily (for 23 days, 200 mg/kg); diabetic rats receiving daily (for 20 days) the abovementioned pharmaceutical compositions containing, as an active components, the compounds described in this invention: MC-200-MC-225. The compounds were administered intragastrically once a day in starch gel at a dose of 50 mg/kg rat weight.\n(§2) The experimental drug doses were selected assuming the expected therapeutic doses for man and previously determined toxic doses (LD50 of studied compounds was approximately 500-1,000 mg/kg). The metmorphin dose for rats was extrapolated from the therapeutic dose for man. Drug administration was started on the third day after alloxan injection when blood glucose level increased approximately 3-fold as compared to control value. Each group consisted of 20 animals of both genders."}, "[2]": {"system": "pancreatic Langerhans islets of rats with alloxan diabetes", "experiment": "Histological examination of the pancreas of alloxan-diabetic rats (Example 3)", "type": "in vivo, rat", "settings": "in 20 days after treatment; for Pancreatic Langerhans islet structure, haematoxylin-eosin staining: magnification 40×7", "description": "Histological examination of pancreatic structure was carried out using the haematoxylin-eosin and aldehyde fuchsine staining of pancreatic sections using standard techniques."}, "[3]": {"system": "white rats with experimental diabetes (alloxan diabetes)", "experiment": "Anti-diabetic, hypolipidemic and hypocholesteremic activity, alloxan diabetes model in rats (Example 2)", "type": "in vivo, rat", "settings": "compounds 50 mg/kg, metmorphin 200 mg/kg daily", "description": "as §1, §2\nPharmaceutical compositions for determination of anti-diabetic action had the same composition as that given in Example I.\nThe comparison of the anti-diabetic action of compounds was carried out using a standard model of alloxan diabetes, as described in Example I, and metmorphin as a comparative drug.\nIn the course of experiment, the following parameters were recorded: animal general condition, water consumption, body mass, levels of glucose, total lipids, tri-glycerides, serum blood cholesterol, and glycosylated hemoglobin, using the generally accepted techniques (Laboratory methods of studies in clinical practice, V. V. Menshikov, Ed., Moscow, “Medicine”, 1987)."}}, "note": "Where a name gives a salt, the structure may show the parent alone.", "data": [{"smiles": "CN(CCOc1ccc(CC2SC(=O)NC2=O)cc1)c1ccccn1", "note": "(stereo not drawn) [Avandia]", "values": [{"measurement": "Fatality rate after infarction, higher than untreated group", "setting": "patients; Avandia group as compared to the untreated group", "result": 64, "unit": "%"}, {"measurement": "Probability of myocardial infarction, higher than untreated group", "setting": "patients; patients who took Avandia as compared to the untreated group", "result": 43, "unit": "%"}]}, {"smiles": "CCOC(=O)c1c(CSc2ccccc2)n(C)c2cc(Br)c(O)c(CN(C)C)c12", "note": "[MC-200, 1-methyl-2-phenylthiomethyl-3-carbethoxy-4-dimethylaminomethyl-5-hydroxy-6-bromoindole hydrochloride]", "values": [{"measurement": "Glucose content, mmol/l, in 10 days", "setting": "[1]; diabetic rats' blood, in 10 days, compounds 50 mg/kg intragastrically once a day in starch gel, metmorphin 200 mg/kg daily", "result": "5.6 ± 0.2", "unit": "mmol/L"}, {"measurement": "Glucose content, mmol/l, in 20 days", "setting": "[1]; diabetic rats' blood, in 20 days, compounds 50 mg/kg intragastrically once a day in starch gel, metmorphin 200 mg/kg daily", "result": "5.4 ± 0.3", "unit": "mmol/L"}, {"measurement": "Pancreatic Langerhans islet structure, haematoxylin-eosin staining", "setting": "[2]", "result": "Restoration of pancreatic Langerhans islet"}, {"measurement": "Body mass", "setting": "[3]; in 10 days", "result": "180 ± 5", "unit": "g"}, {"measurement": "Cholesterol", "setting": "[3]; in 10 days", "result": "2.7 ± 0.4", "unit": "mmol/L"}, {"measurement": "Daily water consumption", "setting": "[3]; in 10 days", "result": "20 ± 3", "unit": "mL"}, {"measurement": "Glucose", "setting": "[3]; in 10 days", "result": "5.6 ± 0.2", "unit": "mmol/L"}, {"measurement": "Glycosylated hemoglobin", "setting": "[3]; in 10 days", "result": "6.2 ± 0.3", "unit": "mol %"}, {"measurement": "Percent of survived rats", "setting": "[3]; in 10 days", "result": 100, "unit": "%"}, {"measurement": "Total lipids", "setting": "[3]; in 10 days", "result": "10.2 ± 0.5", "unit": "g/L"}, {"measurement": "Tri-glycerides", "setting": "[3]; in 10 days", "result": "2.5 ± 0.2", "unit": "mmol/L"}, {"measurement": "β-lipoproteins", "setting": "[3]; in 10 days", "result": "2.0 ± 0.2", "unit": "g/L"}, {"measurement": "Body mass", "setting": "[3]; in 20 days", "result": "182 ± 10", "unit": "g"}, {"measurement": "Cholesterol", "setting": "[3]; in 20 days", "result": "1.5 ± 0.2", "unit": "mmol/L"}, {"measurement": "Daily water consumption", "setting": "[3]; in 20 days", "result": "24 ± 6", "unit": "mL"}, {"measurement": "Glucose", "setting": "[3]; in 20 days", "result": "5.4 ± 0.3", "unit": "mmol/L"}, {"measurement": "Glycosylated hemoglobin", "setting": "[3]; in 20 days", "result": "6.5 ± 05", "unit": "mol %"}, {"measurement": "Percent of survived rats", "setting": "[3]; in 20 days", "result": 75, "unit": "%"}, {"measurement": "Total lipids", "setting": "[3]; in 20 days", "result": "10.6 ± 1.0", "unit": "g/L"}, {"measurement": "Tri-glycerides", "setting": "[3]; in 20 days", "result": "1.5 ± 0.2", "unit": "mmol/L"}, {"measurement": "β-lipoproteins", "setting": "[3]; in 20 days", "result": "2.1 ± 0.3", "unit": "g/L"}]}, {"smiles": "CCOC(=O)c1c(CSc2ccc3ccccc3c2)n(C)c2cc(Br)c(O)c(CN(C)C)c12", "note": "[MC-217, 1-methyl-2-β-naphthylthiomethyl-3-carbethoxy-4-dimethylaminomethyl-5-hydroxy-6-bromoindole hydrochloride]", "values": [{"measurement": "Glucose content, mmol/l, in 10 days", "setting": "[1]; rat, in vivo", "result": "5.2 ± 0.2", "unit": "mmol/L"}, {"measurement": "Glucose content, mmol/l, in 20 days", "setting": "[1]; rat, in vivo", "result": "4.8 ± 0.3", "unit": "mmol/L"}, {"measurement": "Pancreatic Langerhans islet structure, aldehyde fuchsine staining", "setting": "[2]; aldehyde fuchsine staining, magnification 20×7", "result": "Restoration of pancreatic Langerhans islet"}, {"measurement": "Pancreatic Langerhans islet structure, haematoxylin-eosin staining", "setting": "[2]", "result": "Restoration of pancreatic Langerhans islet"}, {"measurement": "Body mass", "setting": "[3]; in 10 days", "result": "190 ± 10", "unit": "g"}, {"measurement": "Cholesterol", "setting": "[3]; in 10 days", "result": "2.4 ± 0.2", "unit": "mmol/L"}, {"measurement": "Daily water consumption", "setting": "[3]; in 10 days", "result": "25 ± 5", "unit": "mL"}, {"measurement": "Glucose", "setting": "[3]; in 10 days", "result": "5.2 ± 0.2", "unit": "mmol/L"}, {"measurement": "Glycosylated hemoglobin", "setting": "[3]; in 10 days", "result": "5.2 ± 0.2", "unit": "mol %"}, {"measurement": "Percent of survived rats", "setting": "[3]; in 10 days", "result": 100, "unit": "%"}, {"measurement": "Total lipids", "setting": "[3]; in 10 days", "result": "10.4 ± 0.5", "unit": "g/L"}, {"measurement": "Tri-glycerides", "setting": "[3]; in 10 days", "result": "2.3 ± 0.2", "unit": "mmol/L"}, {"measurement": "β-lipoproteins", "setting": "[3]; in 10 days", "result": "2.1 ± 0.2", "unit": "g/L"}, {"measurement": "Body mass", "setting": "[3]; in 20 days", "result": "185 ± 10", "unit": "g"}, {"measurement": "Cholesterol", "setting": "[3]; in 20 days", "result": "1.4 ± 0.2", "unit": "mmol/L"}, {"measurement": "Daily water consumption", "setting": "[3]; in 20 days", "result": "22 ± 5", "unit": "mL"}, {"measurement": "Glucose", "setting": "[3]; in 20 days", "result": "4.8 ± 0.1", "unit": "mmol/L"}, {"measurement": "Glycosylated hemoglobin", "setting": "[3]; in 20 days", "result": "4.9 ± 0.3", "unit": "mol %"}, {"measurement": "Percent of survived rats", "setting": "[3]; in 20 days", "result": 100, "unit": "%"}, {"measurement": "Total lipids", "setting": "[3]; in 20 days", "result": "10.2 ± 0.3", "unit": "g/L"}, {"measurement": "Tri-glycerides", "setting": "[3]; in 20 days", "result": "1.5 ± 0.2", "unit": "mmol/L"}, {"measurement": "β-lipoproteins", "setting": "[3]; in 20 days", "result": "2.1 ± 0.2", "unit": "g/L"}]}]}
